Reference: patent US20090149417A1, “Methods and compositions for the treatment of cancer using benzopyrone-type PARP inhibitors” (priority 2007, published 2009)

System: Colo357FG
Test: Luciferase-expressing pancreatic cancer orthotopic nude mouse model
Format: in vivo
Protocol: The therapeutic efficacy of IIIg on tumor growth and survival is evaluated in different luciferase-expressing pancreatic cancer orthotopic nude mouse models using an IVIS100 Imaging System, allowing a quantitative real time monitoring of tumor growth.
Mice are monitored daily for signs of toxicity including weight loss, diarrhea, inactivity, and general appearance.
Three days after the orthotopic implantation of 1.0×10^6 COL0357FG tumor cells in 50 μL of HBSS, when bioluminescence imaging confirmed that tumors are well established, in one experiment, mice are randomly allocated into three groups (n=10 mice per group) to receive one of the following treatments. (a) Vehicle solution for 50 μL of sterile saline; (b) IIIg (25 mg/kg) biweekly i.p.; (c) IIIg (100 mg/kg) biweekly i.p. Treatments are continued for 4 weeks. All mice are weighed weekly and observed for tumor growth. Tumor diameter is assessed with a Vernier caliper, and tumor volume (mm^3) is calculated as d^2×D/2, wherein d and D represent the shortest and longest diameters, respectively. Bulky disease is considered present when tumor burden is prominent in the mouse abdomen (tumor volume, >=2,000 mm^3).
In another experiment, mice are randomly allocated into four groups (n=10 mice per group) to receive one of the following treatments. (a) Vehicle solution for 50 μL of sterile saline; (b) IIIg (200 mg/kg) once weekly i.p.; (c) IIIg (100 mg/kg) biweekly i.p; (d) IIIg (40 mg/kg) once daily i.p. Treatments are continued for 4 weeks. All mice are weighed weekly and observed for tumor growth. Tumor diameter is assessed with a Vernier caliper, and tumor volume (mm^3) is calculated as d^2×D/2, wherein d and D represent the shortest and longest diameters, respectively. Bulky disease is considered present when tumor burden is prominent in the mouse abdomen (tumor volume, >=2,000 mm^3).
In another experiment, mice are randomly allocated into eight groups to receive one of the following treatments via oral or ip administration. (a) Vehicle solution for 50 μL of sterile saline (oral); (b) Gemcitabine (25 mg/kg) biweekly for 4 weeks (ip); (c) IIIg (200 mg/kg) once weekly (oral); (d) IIIg (200 mg/kg) biweekly (oral); (e) IIIg (200 mg/kg) once daily (oral); (f) IIIg (400 mg/kg) once weekly (oral); (g) IIIg (400 mg/kg) biweekly (oral); (h) IIIg (400 mg/kg) once daily (oral). In all treatments, IIIg is given orally. Treatments are continued for 4 weeks. All mice are weighed weekly and observed for tumor growth. Tumor diameter is assessed with a Vernier caliper, and tumor volume (mm^3) is calculated as d^2×D/2, wherein d and D represent the shortest and longest diameters, respectively. Bulky disease is considered present when tumor burden is prominent in the mouse abdomen (tumor volume, >=2,000 mm^3).
When at least 6 of 10 mice in a treatment group presented with bulky disease, the median survival duration for that group is considered to be reached. At the median survival duration of the control group, the tumor growth in mice in all groups is evaluated using the bioluminescence emitted by the tumor cells. Bioluminescence imaging is conducted using a cryogenically cooled IVIS 100 imaging system coupled to a data acquisition computer running Living Image software (Xenogen). The mice are sacrificed by carbon dioxide inhalation when evidence of advanced bulky disease is present. The day of sacrifice is considered the day of death for survival evaluation.
Three days after the orthotopic implantation of 1.0×10^6 COL0357FG tumor cells in 50 μL of HBSS, when bioluminescence imaging confirmed that tumors are well established, mice are randomly allocated into four groups to receive one of the following treatments: (a) Vehicle solution for 50 μL of sterile saline; (b) IIIg (400 mg/kg) once daily for 4 weeks [(QD5+R2)×4]; (c) oxaliplatin (10 mg/kg) biweekly for 4 weeks (ip); (d) combination of IIIg (400 mg/kg) once daily for 4 weeks [(QD5+R2)×4] with oxaliplatin (10 mg/kg biweekly, ip). […]

[1] = intraperitoneal injection, 200 mg/kg QW×4
[2] = oral, 400 mg/kg [QD5+R2]×4, compared to no treatment and standard gemcitabine treatment

In the case of `O=c1ccc2c(I)c([N+](=O)[O-])ccc2o1` [IIIg, 5-iodo-6-nitro-benzopyrone], the Signs of toxicity (100 mg/kg/day 2/week×4 weeks) is reported as “without signs of toxicity”, the Survival (100 mg/kg/day 2/week×4 weeks) is reported as “prolongs survival” and the Tumor burden (100 mg/kg/day 2/week×4 weeks) is reported as “significantly reduces the tumor burden”. For the same compound, the “In vivo antitumor effect, comparison of schedules” value (200 mg/kg/week once a week in comparison with 2 times/week or daily schedule, preliminary results) was “greater in vivo antitumor effect”, the “Anti-tumor activity of the combination” value (IIIg 400 mg/kg once daily [(QD5+R2)×4] with oxaliplatin 10 mg/kg biweekly, ip) was “potent synergistic anti-tumor activity” and the Survival [1] was “prolongs the survival”. The Tumor burden [1] was “potently reduces the tumor burden”, the Survival [2] was “prolongs survival” and the Tumor burden [2] was “significantly reduces the tumor burden”.
